Measured values published in ChEMBL document CHEMBL3045590, “Design, synthesis, bioactivity, and structure-activity relationship (SAR) studies of novel benzoylphenylureas containing oxime ether group” (2008).
Values after ≈ are worked out from the molar mass of the structure shown.

Legend:
Type in all cases: functional
Mythimna separata [1] = assay: Larvicidal activity against fourth-instar larval stage of Mythimna separata (Oriental armyworm) in compound-pretreated corn leaves assessed as mortality at 200 mg/l at 25 +/-1 degC after 4 days
Culex pipiens pallens [2] = assay: Larvicidal activity against fourth-instar larval stage of Culex pipiens pallens (mosquito) assessed as mortality at 1 mg/l at 25 +/-1 degC after 8 days; conditions: 192 h
Culex pipiens pallens [3] = assay: Larvicidal activity against fourth-instar larval stage of Culex pipiens pallens (mosquito) assessed as mortality at 0.5 mg/l at 25 +/-1 degC after 8 days; conditions: 192 h
Culex pipiens pallens [4] = assay: Larvicidal activity against fourth-instar larval stage of Culex pipiens pallens (mosquito) assessed as mortality at 0.25 mg/l at 25 +/-1 degC after 8 days; conditions: 192 h
Culex pipiens pallens [5] = assay: Larvicidal activity against fourth-instar larval stage of Culex pipiens pallens (mosquito) assessed as mortality at 2 mg/l at 25 +/-1 degC after 8 days; conditions: 192 h
Culex pipiens pallens [6] = assay: Larvicidal activity against fourth-instar larval stage of Culex pipiens pallens (mosquito) assessed as mortality at 0.1 mg/l at 25 +/-1 degC after 8 days; conditions: 192 h
Culex pipiens pallens [7] = assay: Larvicidal activity against fourth-instar larval stage of Culex pipiens pallens (mosquito) assessed as mortality at 0.0025 mg/l at 25 +/-1 degC after 8 days; conditions: 192 h
Culex pipiens pallens [8] = assay: Larvicidal activity against fourth-instar larval stage of Culex pipiens pallens (mosquito) assessed as mortality at 0.00025 mg/l at 25 +/-1 degC after 8 days; conditions: 192 h
Mythimna separata [9] = assay: Larvicidal activity against fourth-instar larval stage of Mythimna separata (Oriental armyworm) in compound-pretreated corn leaves assessed as mortality at 0.25 mg/l at 25 +/-1 degC after 4 days
Mythimna separata [10] = assay: Larvicidal activity against fourth-instar larval stage of Mythimna separata (Oriental armyworm) in compound-pretreated corn leaves assessed as mortality at 5 mg/l at 25 +/-1 degC after 4 days
Mythimna separata [11] = assay: Larvicidal activity against fourth-instar larval stage of Mythimna separata (Oriental armyworm) in compound-pretreated corn leaves assessed as mortality at 1 mg/l at 25 +/-1 degC after 4 days
Mythimna separata [12] = assay: Larvicidal activity against fourth-instar larval stage of Mythimna separata (Oriental armyworm) in compound-pretreated corn leaves assessed as mortality at 2.5 mg/l at 25 +/-1 degC after 4 days
Culex pipiens pallens [13] = assay: Larvicidal activity against fourth-instar larval stage of Culex pipiens pallens (mosquito) assessed as mortality at 0.005 mg/l at 25 +/-1 degC after 8 days; conditions: 192 h
Culex pipiens pallens [14] = assay: Larvicidal activity against fourth-instar larval stage of Culex pipiens pallens (mosquito) assessed as mortality at 0.025 mg/l at 25 +/-1 degC after 8 days; conditions: 192 h
Mythimna separata [15] = assay: Larvicidal activity against fourth-instar larval stage of Mythimna separata (Oriental armyworm) in compound-pretreated corn leaves assessed as mortality at 0.5 mg/l at 25 +/-1 degC after 4 days
Culex pipiens pallens [16] = assay: Larvicidal activity against fourth-instar larval stage of Culex pipiens pallens (mosquito) assessed as mortality at 0.05 mg/l at 25 +/-1 degC after 8 days; conditions: 192 h
Mythimna separata [17] = assay: Larvicidal activity against fourth-instar larval stage of Mythimna separata (Oriental armyworm) in compound-pretreated corn leaves assessed as mortality at 25 mg/l at 25 +/-1 degC after 4 days
Culex pipiens pallens [18] = assay: Larvicidal activity against fourth-instar larval stage of Culex pipiens pallens (mosquito) assessed as mortality at 0.001 mg/l at 25 +/-1 degC after 8 days; conditions: 192 h
Mythimna separata [19] = assay: Larvicidal activity against fourth-instar larval stage of Mythimna separata (Oriental armyworm) in compound-pretreated corn leaves assessed as mortality at 10 mg/l at 25 +/-1 degC after 4 days
Culex pipiens pallens [20] = assay: Larvicidal activity against fourth-instar larval stage of Culex pipiens pallens (mosquito) assessed as mortality at 0.0005 mg/l at 25 +/-1 degC after 8 days; conditions: 192 h
Culex pipiens pallens [21] = assay: Larvicidal activity against fourth-instar larval stage of Culex pipiens pallens (mosquito) assessed as mortality at 0.01 mg/l at 25 +/-1 degC after 8 days; conditions: 192 h
Culex pipiens pallens [22] = assay: Ratio of larvicidal activity of compound to larvicidal activity of Flucycloxuron for fourth-instar larval stage of Culex pipiens pallens (mosquito) measured after 8 days
Mythimna separata [23] = assay: Larvicidal activity against fourth-instar larval stage of Mythimna separata (Oriental armyworm) in compound-pretreated corn leaves assessed as mortality at 50 mg/l at 25 +/-1 degC after 4 days
Mythimna separata [24] = assay: Larvicidal activity against fourth-instar larval stage of Mythimna separata (Oriental armyworm) in compound-pretreated corn leaves assessed as mortality at 100 mg/l at 25 +/-1 degC after 4 days
Mythimna separata [25] = assay: Larvicidal activity against fourth-instar larval stage of Mythimna separata (Oriental armyworm) in compound-pretreated corn leaves assessed as mortality at 0.125 mg/l at 25 +/-1 degC after 4 days
Mythimna separata [26] = assay: Larvicidal activity against fourth-instar larval stage of Mythimna separata (Oriental armyworm) in compound-pretreated corn leaves assessed as mortality at 25 +/-1 degC after 4 days
Cucumis sativus = assay: Growth regulation of Cucumis sativus (cucumber) seeds assessed as stimulation of radicle growth at 10 mg/l at 26 degC after 5 days
Mythimna separata [27] = assay: Ratio of Flucycloxuron LC50 to compound LC50 for fourth-instar larval stage of Mythimna separata (Oriental armyworm) measured after 4 days
Mythimna separata [28] = assay: Ratio of Hexaflumuron LC50 to compound LC50 for fourth-instar larval stage of Mythimna separata (Oriental armyworm) measured after 4 days

Row | Compound | mortality at 200 µg/mL (Mythimna separata [1]) | mortality at 1 µg/mL (Culex pipiens pallens [2]) | mortality at 0.5 µg/mL (Culex pipiens pallens [3]) | mortality at 0.25 µg/mL (Culex pipiens pallens [4]) | mortality at 2 µg/mL (Culex pipiens pallens [5]) | mortality at 0.1 µg/mL (Culex pipiens pallens [6]) | mortality at 0.0025 µg/mL (Culex pipiens pallens [7]) | mortality at 0.25 µg/mL (Mythimna separata [9]) | mortality at 5 µg/mL (Mythimna separata [10]) | mortality at 1 µg/mL (Mythimna separata [11]) | mortality at 2.5 µg/mL (Mythimna separata [12]) | mortality at 0.005 µg/mL (Culex pipiens pallens [13]) | mortality at 0.025 µg/mL (Culex pipiens pallens [14]) | mortality at 0.5 µg/mL (Mythimna separata [15]) | mortality at 0.05 µg/mL (Culex pipiens pallens [16]) | mortality at 25 µg/mL (Mythimna separata [17]) | mortality at 0.001 µg/mL (Culex pipiens pallens [18]) | mortality at 10 µg/mL (Mythimna separata [19]) | mortality at 0.01 µg/mL (Culex pipiens pallens [21]) | RatioLC50 (Culex pipiens pallens [22]) | also measured
1 | O=C(NC(=O)c1c(F)cccc1F)Nc1ccc(/C=N/O)cc1 | 80% | 100% | 60% | 40% | 100% | 10% | – | – | – | – | – | – | – | – | – | – | – | – | – | – | –
2 | O=C(NC(=O)c1c(F)cccc1F)Nc1ccc(/C=N/OC(C(F)(F)F)C(F)(F)F)cc1 | – | – | – | – | – | 100% | 100% | 0% | 100% | 90% | 100% | 100% | 100% | 40% | 100% | 100% | 90% | 100% | 100% | 10 | mortality at 0.00025 µg/mL (Culex pipiens pallens [8]): 30%; mortality at 0.0005 µg/mL (Culex pipiens pallens [20]): 60%
3 | O=C(NC(=O)c1c(F)cccc1F)Nc1ccc(/C=N/OCC(F)(F)F)cc1 | – | – | – | – | – | 100% | 70% | 0% | 100% | 90% | 100% | 100% | 100% | 60% | 100% | 100% | 10% | 100% | 100% | 10 | –
4 | C[Si](C)(C)O/N=C/c1ccc(NC(=O)NC(=O)c2c(F)cccc2F)cc1 | 100% | 100% | 100% | 0% | 100% | – | – | – | – | – | – | – | – | – | – | – | – | – | – | – | mortality at 50 µg/mL (Mythimna separata [23]): 0%; mortality at 100 µg/mL (Mythimna separata [24]): 60%
5 | CC1CCC(C(C)C)C(O/N=C/c2ccc(NC(=O)NC(=O)c3c(F)cccc3F)cc2)C1 (centres undefined) | – | – | – | – | – | – | 100% | 10% | 100% | 80% | 100% | 100% | – | 40% | – | 100% | 80% | 100% | 100% | 10 | mortality at 0.125 µg/mL (Mythimna separata [25]): 0%; mortality at 0.0005 µg/mL (Culex pipiens pallens [20]): 10%
6 | O=C(NC(=O)c1c(F)cccc1F)Nc1ccc(CO/N=C(/c2ccc(Cl)cc2)C2CC2)cc1 [FLUCYCLOXURON] | – | – | – | – | – | 100% | – | – | 90% | 10% | 50% | – | 15% | 0% | 100% | – | – | 95% | 0% | – | LC50 (Mythimna separata [26]): 2.44 µg/mL (≈ 5.04 µM)
7 | O=C(NC(=O)c1c(F)cccc1F)Nc1ccc(/C=N/OCC2CCCC2)cc1 | 80% | 100% | 10% | 10% | 100% | 10% | – | – | – | – | – | – | – | – | – | 10% | – | 0% | – | – | mortality at 50 µg/mL (Mythimna separata [23]): 10%; mortality at 100 µg/mL (Mythimna separata [24]): 40%
8 | CCCCCO/N=C/c1ccc(NC(=O)NC(=O)c2c(F)cccc2F)cc1 | – | 100% | 90% | 80% | 100% | 15% | – | – | – | – | – | – | – | – | 0% | 20% | – | 0% | – | – | mortality at 50 µg/mL (Mythimna separata [23]): 90%; Activity (Cucumis sativus): 50%
9 | CC(C)O/N=C/c1ccc(NC(=O)NC(=O)c2c(F)cccc2F)cc1 | – | 100% | 100% | 100% | – | 100% | 15% | 0% | – | 100% | 100% | 75% | 100% | 50% | 100% | – | 0% | – | 100% | – | LC50 (Mythimna separata [26]): 0.5 µg/mL (≈ 1.38 µM); RatioLC50 (Mythimna separata [27]): 5; Activity (Cucumis sativus): 55%; RatioLC50 (Mythimna separata [28]): 9.4
10 | CC(C)(C)O/N=C/c1ccc(NC(=O)NC(=O)c2c(F)cccc2F)cc1 | – | – | – | – | – | 100% | 90% | 0% | 100% | 100% | 100% | 100% | 100% | 85% | 100% | 100% | 70% | 100% | 100% | 10 | RatioLC50 (Mythimna separata [27]): 5; mortality at 0.0005 µg/mL (Culex pipiens pallens [20]): 20%
11 | O=Cc1ccc(NC(=O)NC(=O)c2c(F)cccc2F)cc1 | 0% | 80% | 0% | – | 100% | – | – | – | – | – | – | – | – | – | – | – | – | – | – | – | mortality at 100 µg/mL (Mythimna separata [24]): 0%
